Tests used:
[1] = pH sensitivity of 1H NMR proton chemical shift (BIRDS), variable pH; type: physicochemical; conditions: At 11.7 T and a pH range of 6.5-8.0
Source text: (§1) For paramagnetic complexes, the total chemical shift of the nuclear spin (δO) is dependent on the cumulative effects of diamagnetic (δD) and paramagnetic (δP) terms, where δP is typically much larger than δD, which has also a very weak temperature dependence. Thus, the effect of temperature on the chemical shift is dominated by δP. Similarly, protonation of an exchangeable group from the complex can modify its geometry and alter its chemical shifts, thus providing pH sensing capability. Variation of the total shift term, ΔδO, when temperature changes by ΔT and pH changes by ΔpH, can be modeled as
(§2) where CT=(ΔδO/ΔT)pH,[X] is the temperature sensitivity, CpH=(ΔδO/Δ pH)T,[X] is the pH sensitivity, and CX represents the sensitivity to cation X concentration (see Coman, D. et al., “Brain temperature by Biosensor Imaging of Redundant Deviation in Shifts (BIRDS): comparison between TmDOTP5^− and TmDOTMA^−,” NMR in Biomedicine, 2010, 23(3):277-285 for details). pH or temperature sensing with BIRDS depends on CT and CpH in relation to ΔδO (>>10^1 ppm) and is inherently independent of agent concentration and static magnetic field (BO) (Coman, D. et al., “Brain temperature and pH measured by 1H chemical shift imaging of a thulium agent,” NMR in Biomedicine, 2009, 22(2):229-239).
(§3) Since the ^1H NMR chemical shifts of the —NH peaks in the [XDOTA-4AmC]^2− and [XDOTA-4AmP]^6− complexes are temperature and pH-dependent (FIG. 6 and FIG. 7), they can be used for measurements of temperature and pH using BIRDS (Table 1). […] In the [XDOTMA]^2− set of complexes, it was observed that the —CH3 proton resonance has a higher intensity compared to other nonexchangeable proton peaks, like H2 or H3 (FIG. 2). The 3D surface plots in FIGS. 10A-C represent the temperature and pH dependencies of the —CH3 proton resonance of the [XDOTMA]^2− complex.

[2] = Temperature sensitivity of 1H NMR proton chemical shift (BIRDS), variable temperature; type: physicochemical; conditions: At 11.7 T and a temperature range of 25-42° C.
Source text: as §1, §2, §3

| Structure (SMILES) | pH Sensitivity, —NH proton resonance [1] | Temperature Sensitivity, —NH proton resonance [2] |
| --- | --- | --- |
| O=C([O-])CNC(=O)CN1CCN(CC(=O)NCC(=O)[O-])CCN(CC(=O)NCC(=O)[O-])CCN(CC(=O)NCC(=O)[O-])CC1.[Fe+2] [[Fe(ii)DOTA-4AmC]^2−] | 0.04 ± 0.02 ppm/pH unit | 0.16 ± 0.01 ppm/° C. |
| O=C(CN1CCN(CC(=O)NCP(=O)([O-])[O-])CCN(CC(=O)NCP(=O)([O-])[O-])CCN(CC(=O)NCP(=O)([O-])[O-])CC1)NCP(=O)([O-])[O-].[Co+2] [[Co(ii)DOTA-4AmP]^6−] | 0.37 ± 0.08 ppm/pH unit | 0.14 ± 0.01 ppm/° C. |
| O=C([O-])CNC(=O)CN1CCN(CC(=O)NCC(=O)[O-])CCN(CC(=O)NCC(=O)[O-])CCN(CC(=O)NCC(=O)[O-])CC1.[Ni+2] [[Ni(ii)DOTA-4AmC]^2−] | 1.07 ± 0.12 ppm/pH unit | 0.14 ± 0.02 ppm/° C. |
